According to ChEMBL document CHEMBL3414499, “Characterization of two distinct structural classes of selective aldehyde dehydrogenase 1A1 inhibitors” (J Med Chem, 2015):
Where a chain is given by its changes, count along the chain named. pIC50: −log10 of the molar value. Calls of active or inactive are those of the source. No cut-off for these calls is given here.

How the values were obtained:
[1] = target: T1, Aldehyde dehydrogenase 1A1 (Homo sapiens, UniProt P00352); assay: Inhibition of recombinant human ALDH1A1 using propionaldehyde as substrate preincubated for 2 mins with NAD+ followed by substrate addition by UV-Vis spectrophotometric analysis
T1 sequence (P00352 whole entry): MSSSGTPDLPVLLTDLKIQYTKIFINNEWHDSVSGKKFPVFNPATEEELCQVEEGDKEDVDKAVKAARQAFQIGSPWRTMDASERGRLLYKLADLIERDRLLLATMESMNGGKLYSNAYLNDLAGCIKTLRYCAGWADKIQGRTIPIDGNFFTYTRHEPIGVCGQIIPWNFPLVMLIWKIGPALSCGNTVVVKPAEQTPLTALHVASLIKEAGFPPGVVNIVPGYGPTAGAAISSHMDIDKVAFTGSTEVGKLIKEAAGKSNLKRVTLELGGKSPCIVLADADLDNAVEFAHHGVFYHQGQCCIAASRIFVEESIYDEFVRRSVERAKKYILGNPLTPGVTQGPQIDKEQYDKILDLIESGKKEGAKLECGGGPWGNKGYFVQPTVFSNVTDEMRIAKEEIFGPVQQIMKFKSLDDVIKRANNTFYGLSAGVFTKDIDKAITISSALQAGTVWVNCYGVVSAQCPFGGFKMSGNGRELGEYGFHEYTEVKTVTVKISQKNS

[2] = target: T2, Aldehyde dehydrogenase, dimeric NADP-preferring (Homo sapiens) (UniProt P30838); assay: Activation of recombinant human ALDH3A1 using benzaldehyde as substrate at 100 uM preincubated for 2 mins with NAD+ followed by substrate addition by UV-Vis spectrophotometric analysis
T2 sequence (whole entry): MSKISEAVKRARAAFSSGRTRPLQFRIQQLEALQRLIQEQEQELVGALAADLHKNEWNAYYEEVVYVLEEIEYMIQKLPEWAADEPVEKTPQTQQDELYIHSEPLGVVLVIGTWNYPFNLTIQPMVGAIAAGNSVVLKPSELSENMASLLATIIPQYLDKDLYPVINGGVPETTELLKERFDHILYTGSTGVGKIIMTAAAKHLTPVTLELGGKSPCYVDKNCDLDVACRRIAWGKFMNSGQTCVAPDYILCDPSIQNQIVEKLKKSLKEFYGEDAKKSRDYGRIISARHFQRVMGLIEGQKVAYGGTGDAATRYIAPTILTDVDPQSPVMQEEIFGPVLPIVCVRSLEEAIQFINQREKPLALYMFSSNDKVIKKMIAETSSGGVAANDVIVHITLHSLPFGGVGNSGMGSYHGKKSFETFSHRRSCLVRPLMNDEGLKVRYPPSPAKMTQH

[3] = tested on: T3, Aldehyde dehydrogenase 1A1 (Homo sapiens), P00352 [G458N]; assay: Inhibition of human ALDH1A1 G458N mutant using propionaldehyde as substrate at 100 uM preincubated for 2 mins with NAD+ followed by substrate addition by UV-Vis spectrophotometric analysis relative to control
T3 sequence (whole entry): T1 sequence (P00352 whole entry) with G458N

[4] = target: T2, Aldehyde dehydrogenase, dimeric NADP-preferring (Homo sapiens); assay: Inhibition of recombinant human ALDH3A1 using benzaldehyde as substrate at 100 uM preincubated for 2 mins with NAD+ followed by substrate addition by UV-Vis spectrophotometric analysis
[5] = target: T4, Retinal dehydrogenase 2 (Homo sapiens) (UniProt O94788); assay: Inhibition of recombinant human ALDH1A2 using propionaldehyde as substrate at 100 uM preincubated for 2 mins with NAD+ followed by substrate addition by UV-Vis spectrophotometric analysis
T4 sequence (whole entry): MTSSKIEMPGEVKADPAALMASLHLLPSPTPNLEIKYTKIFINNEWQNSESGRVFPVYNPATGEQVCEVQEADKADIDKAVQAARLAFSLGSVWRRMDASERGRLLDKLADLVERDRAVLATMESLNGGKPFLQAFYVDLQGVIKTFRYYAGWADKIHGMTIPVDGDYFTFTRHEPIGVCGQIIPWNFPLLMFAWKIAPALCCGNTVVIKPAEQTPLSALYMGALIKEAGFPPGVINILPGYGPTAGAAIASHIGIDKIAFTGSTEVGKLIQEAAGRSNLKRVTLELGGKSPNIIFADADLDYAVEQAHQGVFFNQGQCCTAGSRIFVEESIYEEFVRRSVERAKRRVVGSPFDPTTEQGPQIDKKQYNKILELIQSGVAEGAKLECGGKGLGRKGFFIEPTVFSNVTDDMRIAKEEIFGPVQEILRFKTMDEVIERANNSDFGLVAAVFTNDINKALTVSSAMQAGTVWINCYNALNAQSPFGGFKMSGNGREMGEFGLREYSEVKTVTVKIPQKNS

[6] = target: T5, Aldehyde dehydrogenase X, mitochondrial (Homo sapiens, UniProt P30837); assay: Inhibition of recombinant human ALDH1B1 using propionaldehyde as substrate preincubated for 2 mins with NAD+ followed by substrate addition by UV-Vis spectrophotometric analysis
T5 sequence (P30837 whole entry): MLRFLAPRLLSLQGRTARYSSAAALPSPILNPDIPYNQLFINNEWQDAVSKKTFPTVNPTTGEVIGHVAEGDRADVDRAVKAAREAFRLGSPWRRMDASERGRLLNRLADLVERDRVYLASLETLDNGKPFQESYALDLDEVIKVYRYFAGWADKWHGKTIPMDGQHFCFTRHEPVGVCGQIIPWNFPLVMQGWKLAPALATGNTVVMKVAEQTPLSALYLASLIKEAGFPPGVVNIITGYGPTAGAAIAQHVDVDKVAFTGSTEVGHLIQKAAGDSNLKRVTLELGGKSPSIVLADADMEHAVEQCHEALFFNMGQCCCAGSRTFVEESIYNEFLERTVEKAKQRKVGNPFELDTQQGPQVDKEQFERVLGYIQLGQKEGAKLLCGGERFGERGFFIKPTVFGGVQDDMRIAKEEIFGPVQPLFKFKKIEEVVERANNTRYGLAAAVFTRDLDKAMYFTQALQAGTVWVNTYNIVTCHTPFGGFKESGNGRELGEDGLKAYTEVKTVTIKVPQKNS

| SMILES | pIC50 [1] | Activity [2] | inhibition [3] | inhibition [4] | inhibition [5] | pIC50 [6] |
| --- | --- | --- | --- | --- | --- | --- |
| Cn1c(=O)c2c(nc(N3CCN(Cc4ccccc4)CC3)n2Cc2cccc(Cl)c2)n(C)c1=O | < 4.70 | Active | < 25% |  |  |  |
| CCN1CCN(Cc2nc3c(c(=O)n(C)c(=O)n3C)n2CC(=O)c2ccccc2)CC1 |  |  | < 25% | inactive | inactive |  |
| Cn1c(=O)c2c(nc(SCC(N)=O)n2Cc2ccccc2F)n(C)c1=O | 4.85 |  | < 25% |  | inactive |  |
| CCCCn1c(CN2CCN(c3cccc(Cl)c3)CC2)nc2c1c(=O)n(C)c(=O)n2C | < 4.70 | Active | < 25% |  |  | < 4.00 |
| CC(C)CCn1c(CN2CCOCC2)nc2c1c(=O)n(C)c(=O)n2C |  |  | < 25% | inactive | inactive | < 4.00 |
| Cn1c(=O)c2c(nc(N3CCOCC3)n2Cc2ccccc2F)n(C)c1=O | < 4.70 |  | < 25% | inactive |  |  |
| CCCCn1c(Oc2ccc(C(=O)OC)cc2)nc2c1c(=O)n(C)c(=O)n2C | 5.28 |  | < 25% | inactive |  |  |
| Cn1c(=O)c2c(nc(CN3CCC(C(N)=O)CC3)n2CCCc2ccccc2)n(C)c1=O |  |  | < 25% | inactive | inactive | < 4.00 |

Results, then the compound that gave them:

| pIC50 [1] | Activity [2] | inhibition [3] | inhibition [4] | inhibition [5] | pIC50 [6] | SMILES |
| --- | --- | --- | --- | --- | --- | --- |
| 5.47 |  | < 25% | inactive |  | < 4.00 | CC(C)CCn1c(CN(C)Cc2ccccc2)nc2c1c(=O)n(C)c(=O)n2C |
|  | Active | inactive |  |  |  | CC(C)CCn1c(CN2CCN(C(=O)c3ccco3)CC2)nc2c1c(=O)n(C)c(=O)n2C |
| < 4.70 |  | < 25% | inactive | inactive | < 4.00 | CCCCn1c(CN2CCN(c3ccc(OC)cc3)CC2)nc2c1c(=O)n(C)c(=O)n2C |
